{"source": "patent US12569506B2", "about": "“Methods of treating osteonecrosis with LLP2A-bisphosphonate compounds” (The Regents of the University of California, priority 2016, dated 2026)", "key": {"[1]": {"test_system": "glucocorticoid-treated mice", "assay": "56 day mouse model of glucocorticoid-induced osteonecrosis: femur blood vessel / vascular density by microCT", "type": "in vivo", "protocol": "FIG. 2. Blood vessel density of femurs from glucocorticoid-treated mice. 4 month old male mice were treated glucocorticoid (“GC”) or placebo for 56 days. At day 28 a group of glucocorticoid-treated mice were treated with LLP2A-Ale or PTH for an additional 28 days.\nFIG. 3. Vascular density of femurs from glucocorticoid-treated mice. 4 month old male mice were treated with glucocorticoid or placebo for 56 days. At day 28 a group of glucocorticoid-treated mice were treated with LLP2A-Ale or PTH for an additional 28 days. At day 56 animals were given a contrast agent and then sacrificed and then the animals femurs were decalcified and then scanned by microCT.\nThe efficacy of LLP2A-Ale was evaluated using a mouse model of glucocorticoid-induced osteonecrosis. 4-month-old male mice were treated for 56 days with glucocorticoids. At day 28, a group of mice was treated with either LLP2A-Ale or PTH for an additional 28 days. Blood vessel density of the femur was measured after sacrifice by microCT according to published methods. […] Vascular density of the femurs of glucocorticoid-treated mice subsequently treated with LLP2A-Ale or PTH was also assessed by giving the mice a contrast agent, then sacrificing the mice, decalcifying the femurs, and scanning the femurs by microCT. […] Without being bound to a particular theory, it is believed that LLP2A-Ale promotes increased vascularity by bringing MSCs to the bone that is turning over with osteonecrosis, which stimulates new blood vessel formation, which in turn is needed to stimulate new bone formation in the osteonecrotic bone."}, "osteocytes": {"test_system": "osteocytes", "assay": "Cortical bone osteocyte apoptosis (TUNEL) in glucocorticoid-treated mice", "type": "in vivo", "conditions": "GC 56 days, one dose of LLP2A-Ale at day 28, sacrifice day 56, TUNEL (FIG. 5)", "protocol": "FIG. 5. Cortical bone osteocyte apoptosis. Mice were treated with PL for 56 days, GC alone for 56 days or GC alone for 28 days, then GC plus one dose of LLP2A-Ale at day 28. Animals were sacrificed at day 56 and the percent of osteocytes that were apoptotic were measured.\nOsteocytes die from loss of blood supply and also from glucocorticoid treatment. […] The animals were sacrificed at day 56, the bones were decalcified and then TUNEL assays were performed to determine the number of apoptotic osteocytes. Glucocorticoid treatment alone, at day 56 increased the number of osteocytes that were apoptotic."}, "[2]": {"test_system": "dexamethasone-treated mice", "assay": "Empty lacunae density in distal femoral epiphysis, 90 day model", "type": "in vivo, BALB/c mice", "conditions": "day 90", "protocol": "FIG. 8A-8B. Empty lacunae density of femurs from in dexamethasone-treated mice. Mice treated with placebo (PL), dexamethasone alone (Dex), Dex+250 μg/kg LLP2A-Ale, Dex+500 μg/kg LLP2A-Ale, or Dex+750 μg/kg LLP2A-Ale as described above for FIG. 7 were assessed for empty lacunae density within the distal femoral epiphysis region. Empty lacunae density was calculated by determining the number of empty lacunae in the entire distal femoral epiphysis region divided by the total number of osteocytes within the same region for each specimen. In the Dex only group, 75% of the samples had 10% or more empty lacunae, as compared to 44-62% of the samples in LLP2A-Ale-treated groups. A higher number of LLP2A-Ale 250 μg/kg, LLP2A-Ale 500 μg/kg, and LLP2A-Ale 750 μg/kg—treated samples had less than 10% empty lacunae as compared to Dex only treatment.\nBoth the right and left distal femurs were fixed in 10% neutral buffered formalin and were shaken for 3 days, then decalcified in 5% EDTA until the bones were fully decalcified. The specimens were then processed in ascending concentrations of ethanol and embedded in paraffin. Tissue sections were cut into 5 microns sections, stained with hematoxylin and eosin and evaluated for the presence of osteonecrosis by bright field microscopy at 20× magnification. […] Osteonecrosis was detected using modified criteria reported by Yang el al., (a mouse model for glucocorticoid-induced osteonecrosis: Effect of a steroid holiday. J Orthop Res. 2009; 27:169-75) which defines osteonecrosis as requiring all of the following changes: (1) empty lacunae, (2) pyknotic osteocyte nuclei in areas of empty lacunae and necrosis of adjacent bone marrow, (3) presence of excessive fat cells in the bone marrow, (4) cartilage degradation and (5) presence of fibrin thrombi in the blood vessels. In addition, trabecular bone volume, adipose volume, sinusoid volume and osteoblast surface at the distal femoral epiphyses were measured. Empty lacunae density was calculated by empty lacunae/total osteocytes within the entire distal femoral epiphysis region for each sample. […]"}, "[3]": {"test_system": "dexamethasone-treated mice", "assay": "30 and 45 day prevention study: trabecular bone histology of distal femur epiphyses", "type": "in vivo, BALB/c mice", "protocol": "(§1) The efficacy of LLP2A-Ale and hPTH (1-34) was evaluated over a 30 and 45 day study using a mouse model of glucocorticoid-induced osteonecrosis. Seven week-old male BALB/c mice were randomized into Placebo group (fresh water), glucocorticoid only (4 mg/L dexamethasone (Dex) in drinking water), Dex+250 μg/kg LLP2A-Ale, Dex+500 μg/kg LLP2A-Ale, or Dex+40 μg/kg hPTH (administered five times a week) for 30 or 45 days. At day 30 or 45, the mice were sacrificed. Study endpoints included histological evidence of osteonecrosis, bone mass, and prevalent blood vessels (CD31 and Endomucin expression) in the distal femur, and was performed as set forth in Example 2. Non-parametric Kruskal-Wallis tests were used to determine the differences between the groups."}, "[4]": {"test_system": "CD31 and Endomucin expression", "assay": "30 and 45 day prevention study: blood vessels in the distal femur (CD31 and Endomucin expression)", "type": "in vivo, BALB/c mice", "conditions": "30 and 45 day study, conclusion", "protocol": "as §1"}}, "note": "“Also recorded” adds a separate entry of the source.", "data": [{"smiles": "Cc1ccccc1NC(=O)Nc1ccc(CC(=O)N[C@@H](CCCCNC(=O)/C=C/c2cccnc2)C(=O)N[C@@H](CCCC(=O)O)C(=O)NC2(C(=O)NCCOCCOCCNC(=O)CCC(=O)NCCOCCOCCNC(=O)CCC(=O)N[C@@H](CCCCNC(=O)[C@H](N)CSC3CC(=O)N(CC4CCC(C(=O)NCCCC(O)(P(=O)(O)O)P(=O)(O)O)CC4)C3=O)C(N)=O)CCCCC2)cc1", "note": "(some centres unmarked) [LLP2A-Ale]", "values": [{"measurement": "Blood vessel density of the femur", "setting": "[1]; 4 month old male mice, GC 56 days, LLP2A-Ale or PTH from day 28 for 28 days, microCT after sacrifice (FIG. 2)", "value": "significantly higher than the negative control; also recorded: significantly different from all other groups"}, {"measurement": "Vascular density of femurs", "setting": "[1]; contrast agent at day 56, decalcified femurs scanned by microCT (FIG. 3), vs GC alone", "value": "increased vascular density compared to glucocorticoid alone; also recorded: increased vascular density compared to GC alone"}, {"measurement": "Cortical bone osteocyte apoptosis (percent of osteocytes apoptotic)", "setting": "osteocytes", "value": "prevented osteocyte apoptosis"}, {"measurement": "Samples with less than 10% empty lacunae", "setting": "[2]; LLP2A-Ale 250, 500, 750 μg/kg vs Dex only", "value": "more samples; also recorded: higher number"}, {"measurement": "Samples with 10% or more empty lacunae", "setting": "[2]; distal femoral epiphysis, Dex only vs LLP2A-Ale 250, 500, 750 μg/kg groups (FIG. 8A-B)", "value": "44-62%"}, {"measurement": "Trabecular bone volume", "setting": "[3]; day 30 and 45, Dex vs placebo, treated vs Dex (p<0.05)", "value": "higher bone volume"}, {"measurement": "Trabecular separation", "setting": "[3]; vs Dex group, day 30 and 45 (p<0.05)", "value": "lower trabecular separation"}, {"measurement": "Vascular integrity of the distal femur", "setting": "[4]", "value": "maintained the vascular integrity"}]}]}
